Measured values from publication PMC5604080, “Genetic and Biochemical Characterization of 2-Chloro-5-Nitrophenol Degradation in a Newly Isolated Bacterium, Cupriavidus sp. Strain CNP-8” (Frontiers in Microbiology, 2017).

Experiments:
MnpC (H6-MnpC) = biological target: T1, MnpC (H6-MnpC) (Cupriavidus sp. CNP-8, UniProt A0A291LMA7); assay: spectrophotometric turnover, product with λmax […] nm; type: biochemical; details: structure analog used in place of unstable aminohydroquinone
T1 construct: full-length, pET-28a NdeI-XhoI, His6-tagged (H6-MnpC), E. coli Rosetta(DE3)pLysS, Ni-NTA purified, about 35 kDa, single-subunit dioxygenase
T1 sequence (A0A291LMA7 1-316): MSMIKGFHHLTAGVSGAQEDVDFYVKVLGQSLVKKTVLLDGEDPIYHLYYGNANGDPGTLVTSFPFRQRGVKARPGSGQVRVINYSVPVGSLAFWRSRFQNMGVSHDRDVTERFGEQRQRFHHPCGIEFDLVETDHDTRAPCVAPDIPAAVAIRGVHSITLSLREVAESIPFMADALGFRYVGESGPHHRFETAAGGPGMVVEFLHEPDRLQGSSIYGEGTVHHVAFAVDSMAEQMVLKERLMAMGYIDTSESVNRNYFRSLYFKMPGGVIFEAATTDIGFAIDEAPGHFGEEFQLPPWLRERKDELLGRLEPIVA

O=[N+]([O-])c1cccc(O)c1 = assay: purified protein; type: biochemical, Cupriavidus sp. CNP-8; details: 0.2 mM NADPH, 50 mM phosphate pH 7.5
[1] = test system: O=[N+]([O-])c1ccc(Cl)c(O)c1; assay: purified protein; type: biochemical, Cupriavidus sp. CNP-8; details: 0.2 mM NADPH, 50 mM phosphate pH 7.5

| Molecule | spectrophotometric turnover, product with λmax 320 nm (MnpC (H6-MnpC)) | Km (O=[N+]([O-])c1cccc(O)c1) [µM] | Km [1] [µM] |
| --- | --- | --- | --- |
| Oc1ccc(O)c(Cl)c1 [chlorohydroquinone] | H6-MnpC catalyzed rapid degradation of both CHQ and HQ | – | – |
| Oc1ccc(O)cc1 [hydroquinone] | H6-MnpC catalyzed rapid degradation of both CHQ and HQ | – | – |
| MnpA (H6-MnpA) (Cupriavidus sp. CNP-8) | – | 3.4 ± 1.63 | 16.3 ± 2.87 |
